Reference: PMC9320114 (Molecules, 2022)
Like-named read-outs stand apart in the source and are kept apart here.

What was measured:
[1] = biological target: T1, murine acetylcholinesterase (mAChE) (Mus musculus, UniProt P21836); assay: biochemical; format: biochemical; conditions: for mAChE RA (%) / remaining activity at 10 µM / RA (mAChE, 10 µM): residual activity at 10 µM; for remaining activity at 10 µM: read-out: mAChE RA (%); for RA (mAChE, 10 µM): Figure 1
T1 sequence (P21836 32-614): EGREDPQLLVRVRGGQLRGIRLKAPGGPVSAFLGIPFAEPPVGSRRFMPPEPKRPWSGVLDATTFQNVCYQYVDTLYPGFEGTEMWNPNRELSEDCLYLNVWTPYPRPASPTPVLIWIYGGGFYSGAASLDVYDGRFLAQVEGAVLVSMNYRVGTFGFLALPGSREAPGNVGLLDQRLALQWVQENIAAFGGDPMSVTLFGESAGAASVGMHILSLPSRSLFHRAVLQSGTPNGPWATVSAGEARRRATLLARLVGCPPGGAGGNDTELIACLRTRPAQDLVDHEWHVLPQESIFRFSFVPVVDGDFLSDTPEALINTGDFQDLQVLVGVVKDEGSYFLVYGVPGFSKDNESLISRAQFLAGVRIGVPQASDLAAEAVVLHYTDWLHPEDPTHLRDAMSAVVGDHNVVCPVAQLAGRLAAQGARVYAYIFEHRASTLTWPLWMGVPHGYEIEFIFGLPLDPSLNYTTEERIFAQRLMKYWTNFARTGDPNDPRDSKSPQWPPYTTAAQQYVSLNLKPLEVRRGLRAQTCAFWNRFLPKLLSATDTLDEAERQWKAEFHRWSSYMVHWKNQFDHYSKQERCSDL
Method: (§1) Enzyme solutions were prepared by diluting the concentrated enzyme stock solutions (4.6 mg/mL in 10 mM MES-NaOH buffer, pH 6.5) in a sodium phosphate-buffered solution (0.1 M, pH 8.0). […] The final organic solvent (DMSO) content was always 1% (v/v). Reactions were initiated by adding the substrate to the enzyme and inhibitor, which were preincubated for 5 min. […] To determine the blank value (b), the enzyme solution was replaced by a phosphate-buffered solution. The initial velocity (v) was calculated from the slope of the linear trend obtained, with each measurement performed in triplicate. The inhibitory potencies were expressed as RA=(vi − b)/(vo − b), where vi is the velocity in the presence of the test compounds and vo is the control velocity in the presence of DMSO. Seven different concentrations of each compound were used for the IC50 measurements. IC50 values were obtained by plotting the residual enzyme activities against the applied inhibitor concentrations, fitting the experimental data to the 4-parameter Hill equation:(1) Y=Bottom+(Top−Bottom)/1+10^((LogIC50−X)×Hill Slope) where X is the logarithm of the inhibitor concentration, and Y is the residual activity. GraphPad Prism 8.2.0 (GraphPad Software, San Diego, CA, USA) was used for the fitting procedure.

[2] = biological target: human butyrylcholinesterase (hBChE) (Homo sapiens, UniProt P06276); assay: biochemical; format: biochemical
human butyrylcholinesterase (hBChE), sequence (P06276 29-602): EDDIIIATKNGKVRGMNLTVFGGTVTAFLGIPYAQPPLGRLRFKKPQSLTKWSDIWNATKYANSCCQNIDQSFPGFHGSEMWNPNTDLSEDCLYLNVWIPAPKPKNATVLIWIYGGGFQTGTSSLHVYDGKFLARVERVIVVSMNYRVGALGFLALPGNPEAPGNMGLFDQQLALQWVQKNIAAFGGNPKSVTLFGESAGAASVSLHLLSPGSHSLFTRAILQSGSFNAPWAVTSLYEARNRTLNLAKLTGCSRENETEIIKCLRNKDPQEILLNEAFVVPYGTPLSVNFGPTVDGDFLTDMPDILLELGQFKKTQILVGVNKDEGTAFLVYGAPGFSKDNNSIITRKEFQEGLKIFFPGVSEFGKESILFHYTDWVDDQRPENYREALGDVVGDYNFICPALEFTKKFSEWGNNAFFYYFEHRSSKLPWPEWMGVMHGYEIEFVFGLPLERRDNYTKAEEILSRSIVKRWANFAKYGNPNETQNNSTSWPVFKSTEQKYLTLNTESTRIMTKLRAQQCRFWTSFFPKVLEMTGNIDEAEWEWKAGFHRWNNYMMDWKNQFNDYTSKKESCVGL
Method: as §1

[3] = residual activity at 10 µM; Table 4; read-out: hBChE RA (%)
[4] = residual activity at 10 µM; Mini Library screen, Table S1
[5] = residual activity at 10 µM; Table 1; read-out: hBChE RA (%)

`C1=C(c2ccccc2)CCN(CCCCc2c[nH]c3ccccc23)C1` [MS-ML10] was tested, and the “mAChE RA (%)” value ([1]; Mini Library screen, Table S1) was 64%, the remaining activity at 10 µM ([1]; Table 4) was 64% and the IC50 ([2]; Table 4; IC50 ± SEM; read-out: hBChE IC50) was 0.0356 ± 0.0003 µM. The remaining activity at 10 µM [2, 3] was 0%.
With `O=C(Nc1ccc(Oc2ccncc2)cc1)Nc1cc(C(F)(F)F)ccc1-n1cncn1` [MS-ML80] the “mAChE RA (%)” value ([1]; Mini Library screen, Table S1) was 95% and the “hBChE RA (%)” value [2, 4] was 73%.
`Oc1ccc2[nH]cc(CCCCN3CC=C(c4ccccc4)CC3)c2c1` [MS-ML11] was tested, and the “mAChE RA (%)” value ([1]; Mini Library screen, Table S1) was 82%, the remaining activity at 10 µM ([1]; Table 4) was 82% and the IC50 ([2]; read-out: hBChE IC50; Table 4; IC50 ± SEM) was 0.0788 ± 0.0103 µM. For the same compound, the remaining activity at 10 µM [2, 3] was 0%.
With `CCCCCCN(Cc1ccc(C#Cc2ccc(CCCC)cc2)cc1)c1ccc(O)c(C(=O)O)c1` [MS-ML24] the IC50 ([1]; Mini Library screen, Table S1) was 0.414 ± 0.04 µM, the IC50 ([1]; Table 1, IC50 ± SEM) was 0.294 ± 0.025 µM and the “RA (mAChE, 10 µM)” value [1] was 1%. For the same compound, the remaining activity at 10 µM ([1]; Table 1) was 1%, the IC50 ([2]; Table 1; IC50 ± SEM; read-out: hBChE IC50) was 0.949 ± 0.046 µM and the “hBChE RA (%)” value [2, 4] was 60%. For the same compound, the remaining activity at 10 µM [2, 5] was 9%.
With `O=C(OC[C@H]1CCCN1c1ccnc2ncnn12)c1ccc(Oc2ccccc2)nc1` [MS-ML31] the “mAChE RA (%)” value ([1]; Mini Library screen, Table S1) was 89% and the “hBChE RA (%)” value [2, 4] was 84%.
`CCCCc1nc2ccn(CC(=O)N3CCCCC3)c(=O)c2n1Cc1ccc(-c2ccccc2S(=O)(=O)NC(=O)OCc2ccccc2)cc1F` [MS-ML05] was tested, and the “mAChE RA (%)” value ([1]; Mini Library screen, Table S1) was 96% and the “hBChE RA (%)” value [2, 4] was 91%.
For `CCCCc1nc2ccn(Cc3ccccc3)c(=O)c2n1Cc1ccc(-c2ccccc2-c2nnn[nH]2)cc1` [MS-ML03], the “mAChE RA (%)” value ([1]; Mini Library screen, Table S1) was 92% and the “hBChE RA (%)” value [2, 4] was 87%.
`CCCCCCN(Cc1ccc(C#Cc2ccc(CCCC)cc2)cc1)c1ccc(F)c(C(=O)O)c1` [MS-ML26] was tested, and the IC50 ([1]; Mini Library screen, Table S1) was 0.359 ± 0.039 µM, the IC50 ([1]; Table 1, IC50 ± SEM) was 0.275 ± 0.06 µM and the “RA (mAChE, 10 µM)” value [1] was 8%. The remaining activity at 10 µM ([1]; Table 1) was 8%, the “hBChE RA (%)” value [2, 4] was 68% and the remaining activity at 10 µM [2, 5] was 57%.
With `CCCCCCN(Cc1ccc(C#Cc2ccc(CCCC)cc2)cc1)C(=O)c1ccc(O)c(C(=O)O)c1` [MS-ML25] the IC50 ([1]; Mini Library screen, Table S1) was 0.369 ± 0.055 µM, the IC50 ([1]; Table 1, IC50 ± SEM) was 0.485 ± 0.079 µM and the “RA (mAChE, 10 µM)” value [1] was 3%. For the same compound, the remaining activity at 10 µM ([1]; Table 1) was 3%, the “hBChE RA (%)” value [2, 4] was 108% and the remaining activity at 10 µM [2, 5] was 55%.
